Legend:
[1] = target: T1, H-PGDS (Homo sapiens (Human), UniProt O60760); experiment: H-PGDS Inhibitor Enzyme Immunoassay (EIA); type: biochemical; settings: 25 ng H-PGDS, 40 μM PGH2, 1 mM GSH; PGD2 quantified by EIA
Experimental: H-PGDS Inhibitor Enzyme Immunoassay
The assay detects and measures PGD2 generated by H-PGDS. The prostanoid product is quantified via enzyme immunoassay (EIA) using a specific PGD2 antibody.
The assay is carried out by the following steps: • 1. Inhibitor screening is performed in 100 mM Tris-HCl, pH 8.0 containing 1 mM GSH, 1 mM MgCl2, 4% inhibitor/DMSO, 40 μM PGH2 and 25 ng of PGDS in a total volume of 125 μL. • 2. A reaction mixture containing 100 mM Tris-HCl, pH 8.0, 1 mM GSH, 1 mM MgCl2, 25 ng H-PGDS and 4% inhibitor or DMSO (uninhibited reaction) is preincubated at 25° C. for 10 minutes. • 3. Reactions are initiated using 5 μL of PGH2 and quenched every 15 seconds for one minute. Reactions are quenched by taking 10 μL of reaction mixture and adding to 490 μL of 100 mM phosphate buffer containing 0.1% BSA, 400 mM NaCl, 1 mM EDTA, 20 mM FeCl2, 10% 1N HCl, and 0.01% azide to prevent the non-enzymatic formation of PGD2 from PGH2. The FeCl2 serves the purpose of reducing PGH2 to 12-HHT. (Quench buffer is kept on ice at all times). • 4. Quenched samples (5 μL) are further diluted 100 fold in 495 μL of 100 mM phosphate buffer containing 0.1% BSA, 400 mM NaCl, 1 mM EDTA, and 0.01% azide for the PGD2 EIA assay. (Dilution buffers are kept on ice at all times).
The final 5000 fold diluted samples are analyzed following the protocol outlined in Cayman Chemical's commercially available PGD2 EIA kit (Cat. #512021). 50 μL of diluted sample is analyzed at least in duplicate in the EIA assay and the amount of PGD2 formed is quantified using a standard curve.

[2] = target: T1, H-PGDS; experiment: H-PGDS Fluorescence Polarization Binding Assay (FPBA); settings: H-PGDS-MBP fusion enzyme, fluorescent probe, reduced glutathione 5 mM, 60-90 minutes at room temperature, 96-well format
Experimental: H-PGDS Fluorescence Polarization Binding Assay This assay essentially is available from Cayman Chemical Company as Catalog item #600007. The test data reported for the aforementioned Examples (H-PGDS FPBA IC50) were generated using a 96-well, instead of the 384-well, format. […] Assays were performed in 96-well microtiter plates in 100 μL of total sample volume. Excitation and emission wavelengths appropriate for the employed detection analyte were used. […] Twelve clean microfuge tubes were labeled A1 through A12. […] Dimethyl sulfoxide (50 μL) was added to each of tubes A1 through A11. The HQL-79 control solution was serially diluted by removing 50 μL from tube A12 and placing it in tube A11 with subsequent thorough mixing of the contents of tube A11. Next, 50 μL was removed from tube A11 and was placed into tube A10 with subsequent thorough mixing of the contents of tube A10. This process was repeated for tubes A9 through A2. […] A test compound may be dissolved in DMSO, ethanol, or methanol at several concentrations when the titration endpoint is unknown. […] Assay cocktail (95 μL) was added to each plate well. DMSO (5 μL) from microfuge tube A1 was added to each plate well A1 and B1. Positive control solution (5 μL) from microfuge tube A2 was added to each plate well A2 and B2. Positive control solution (5 μL) from microfuge tube A3 was added to each plate well A3 and B3. This procedure was continued until all the positive control standard dilutions were aliquoted. Test compound solutions (5 μL) were added to the wells. […] The IC50 for a particular test compound was obtained by performing a full concentration titration versus a full concentration titration of positive control. Comparison of a single concentration of a test compound to the maximum binding well provided an assessment of the relative affinity of the test compound for H-PGDS-MBP. The plate was covered and incubated for 60-90 minutes at room temperature. The FP signal is stable for at least two hours. […] The measurements were taken in the fluorescent polarization mode with the z-height set to the middle of the well and the G-factor set to 1.13 on a Tecan Safire 2 reader.

T1 sequence (O60760 whole entry): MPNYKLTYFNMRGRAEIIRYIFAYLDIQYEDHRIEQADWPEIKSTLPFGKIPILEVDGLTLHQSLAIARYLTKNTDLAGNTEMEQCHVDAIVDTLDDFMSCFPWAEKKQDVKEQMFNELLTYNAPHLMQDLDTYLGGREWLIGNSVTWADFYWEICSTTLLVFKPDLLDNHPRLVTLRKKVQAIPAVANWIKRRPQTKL

IC50 [1]	IC50 [2]	melting point	Compound
47 nM	280 nM	240 °C	Fc1cccc(-c2ncc(-c3cnc(-c4ccccc4)[nH]3)cn2)c1 [Example 6, 2-(3-fluorophenyl)-5-(2-phenyl-1H-imidazol-5-yl)pyrimidine]
82 nM	450 nM	138 °C	Cc1nc(-c2ccccc2)[nH]c1-c1cnc(-c2ccccc2)nc1 [Example 4, 5-(4-methyl-2-phenyl-1H-imidazol-5-yl)-2-phenylpyrimidine]
84 nM	1000 nM	280 to 282 °C	c1ccc(-c2ncc(-c3nnc(-c4ccccc4)[nH]3)cn2)cc1 [Example 49, 2-phenyl-5-(5-phenyl-4H-1,2,4-triazol-3-yl)pyrimidine]
130 nM	1300 nM		CCOC(=O)c1cc(-c2cnc(Oc3ccccc3)nc2)[nH]n1 [Example 54, ethyl 5-(2-phenoxypyrimidin-5-yl)-1H-pyrazole-3-carboxylate]
370 nM	625 nM	236 °C	c1ccc(Oc2ncc(-c3cnc(-c4cccnc4)[nH]3)cn2)cc1 [Example 40, 2-phenoxy-5-(2-(pyridin-3-yl)-1H-imidazol-4-yl)pyrimidine]
21 nM	79 nM	308 °C	c1ccc(-c2ncc(-c3cnc(-c4cccnc4)[nH]3)cn2)cc1 [Example 10, 2-phenyl-5-(2-(pyridin-3-yl)-1H-imidazol-5-yl)pyrimidine]
150 nM	1000 nM	319 °C	c1ccc(-c2ncc(-c3csc(-c4cccnc4)n3)cn2)cc1 [Example 59, 4-(2-phenylpyrimidin-5-yl)-2-(pyridin-3-yl)thiazole]
	10000 nM	60 °C	c1ccc(Cc2ncc(-c3cnc(Oc4ccccc4)nc3)[nH]2)cc1 [Example 39, 5-(2-benzyl-1H-imidazol-4-yl)-2-phenoxypyrimidine]
23 nM	150 nM	258 °C	C(=C\c1ncc(-c2cnc(-c3ccccc3)nc2)[nH]1)/c1cccnc1 [Example 15, (E)-2-phenyl-5-(2-(2-(pyridin-3-yl)vinyl)-1H-imidazol-5-yl)pyrimidine]
	300 nM	113 °C	c1ccc(-c2ncc(-c3cnc(CCc4cccnc4)[nH]3)cn2)cc1 [Example 16, 2-phenyl-5-(2-(2-(pyridin-3-yl)ethyl)-1H-imidazol-5-yl)pyrimidine]
	7600 nM	144 °C	Cn1cncc1-c1cnc(-c2ccccc2)nc1 [Example 32, 5-(1-methyl-1H-imidazol-5-yl)-2-phenylpyrimidine]
	2400 nM	264 to 273 °C	Cl.c1ccc(-c2ncc(-c3cc[nH]n3)cn2)cc1 [Example 41, 2-phenyl-5-(1H-pyrazol-3-yl)pyrimidine hydrochloride]
12 nM	250 nM	253 °C	c1ccc(-c2ncc(-c3cnc(-c4ccccc4)[nH]3)cn2)cc1 [Example 1, 2-phenyl-5-(2-phenyl-1H-imidazol-5-yl)pyrimidine]
	5000 nM	290 °C	O=C(O)C(F)(F)F.c1ccc(-c2ncc(-c3csc(C4CCNCC4)n3)cn2)cc1 [Example 61, 4-(4-(2-phenylpyrimidin-5-yl)thiazol-2-yl)piperidinium 2,2,2-trifluoroacetate]
	3400 nM	134 to 136 °C	COCCCNC(=O)c1csc(-c2cnc(-c3ccccc3)nc2)n1 [Example 64, N-(3-methoxypropyl)-2-(2-phenylpyrimidin-5-yl)thiazole-4-carboxamide]
250 nM	625 nM	211 °C	Cn1c(-c2cnc(-c3ccccc3)nc2)cnc1-c1ccccc1 [Example 3, 5-(1-methyl-2-phenyl-1H-imidazol-5-yl)-2-phenylpyrimidine]
	450 nM	234 °C	O=C(c1cccnc1)N1CCC(c2nc(-c3cnc(-c4ccccc4)nc3)c[nH]2)CC1 [Example 20, (4-(4-(2-phenylpyrimidin-5-yl)-1H-imidazol-2-yl)piperidin-1-yl)(pyridin-3-yl)methanone]
	3500 nM	231 °C	COc1ccc(-c2ncc(-c3cnc(-c4ccccc4)[nH]3)cn2)cc1OC [Example 7, 2-(3,4-dimethoxyphenyl)-5-(2-phenyl-1H-imidazol-5-yl)pyrimidine]
41 nM	156 nM	309 °C	Fc1cccc(-c2ncc(-c3cnc(-c4cccnc4)[nH]3)cn2)c1 [Example 11, 2-(3-fluorophenyl)-5-(2-(pyridin-3-yl)-1H-imidazol-5yl)pyrimidine]
	1250 nM	140 °C	c1ccc(-c2ncc(-c3cnc(C4CCCNC4)[nH]3)cn2)cc1 (racemic) [Example 22, (±)-2-phenyl-5-(2-(piperidin-3-yl)-1H-imidazol-5-yl)pyrimidine]
420 nM	650 nM		CN1CCN(C(=O)c2cc(-c3cnc(Oc4ccccc4)nc3)[nH]n2)CC1 [Example 57, (4-methylpiperazin-1-yl)(5-(2-phenoxypyrimidin-5-yl)-1H-pyrazol-3-yl)methanone]
	2800 nM	238 °C	c1ccc(-c2ncc(-c3ncc(-c4ccccc4)[nH]3)cn2)cc1 [Example 44, 2-phenyl-5-(5-phenyl-1H-imidazol-2-yl)pyrimidine]
	> 20000 nM	170 °C	c1ccc(Cc2nc(-c3cnc(-c4ccccc4)nc3)cs2)cc1 [Example 60, 2-benzyl-4-(2-phenylpyrimidin-5-yl)thiazole]
4 nM	188 nM	221 °C	Fc1cccc(-c2ncc(-c3cnc(-c4ccccc4)nc3)[nH]2)c1 [Example 8, 5-(2-(3-fluorophenyl)-1H-imidazol-5-yl)-2-phenylpyrimidine]
59 nM	625 nM	235 °C	c1ccc(Cc2ncc(-c3cnc(-c4ccccc4)nc3)[nH]2)cc1 [Example 14, 5-(2-benzyl-1H-imidazol-5-yl)-2-phenylpyrimidine]
	7800 nM	175 to 177 °C	c1ccc(-c2ncc(-c3ncco3)cn2)cc1 [Example 42, 2-(2-phenylpyrimidin-5-yl)oxazole]
	4000 nM	195 °C	c1ccc(Cn2cnc(-c3cnc(-c4ccccc4)nc3)c2)cc1 [Example 34, 5-(1-benzyl-1H-imidazol-4-yl)-2-phenylpyrimidine]
	1300 nM	299 °C	c1cncc(-c2ncc(-c3cnc(-c4cccnc4)[nH]3)cn2)c1 [Example 12, 2-(pyridin-3-yl)-5-(2-(pyridin-3-yl)-1H-imidazol-5-yl)pyrimidine]
	1000 nM	322 to 333 °C	c1ccc(-c2ncc(-c3nnc(-c4cccnc4)[nH]3)cn2)cc1 [Example 50, 2-phenyl-5-(5-(pyridin-3-yl)-1H-1,2,4-triazol-3-yl)pyrimidine]
	4000 nM	254 °C	c1ccc(Oc2ncc(-c3cnc(-c4ccccc4)[nH]3)cn2)cc1 [Example 38, 2-phenoxy-5-(2-phenyl-1H-imidazol-5-yl)pyrimidine]
